ChEMBL document CHEMBL3885861, “Open TG-GATES”

Species: Rattus norvegicus
Test: Open TG-GATES - Regimen: Single
Assay type: toxicity, organism-based, Sprague-Dawley
Set-up: regimen Single, gender Male, age 6 weeks
Details: in vivo, po, 0 mg/kg, route gavage, dose level Control; for APTT / Bas / Eos / Fbg / Hb / Ht / Lym / MCH / MCHC / MCV / Mono / Neu / PT / Plat / RBC / Ret / WBC: tissue Blood; for KIDNEY_L / KIDNEY_R / KIDNEY_TOTAL: tissue Kidney; for LIVER: tissue Liver; for A/G / ALP / ALT / AST / BUN / CRE / Ca / Cl / DBIL / GLC / IP / K / LDH / Na / PL / RALB / TBIL / TC / TG / TP / gamma-GTP: tissue Plasma

C[C@](N)(Cc1ccc(O)c(O)c1)C(=O)O [METHYLDOPA]
TERMINAL_BW (3 h): 189.8 g | APTT (3 h): 16.9 s | Bas (3 h): 0% | Eos (3 h): 0.8% | Fbg (3 h): 253.4 mg/dL | Hb (3 h): 13.1 g/dL | Ht (3 h): 39.1% | Lym (3 h): 75% | MCH (3 h): 22.2 pg | MCHC (3 h): 33.4% | MCV (3 h): 66.5 fL | Mono (3 h): 3.2% | Neu (3 h): 20.4% | PT (3 h): 12.3 s | Plat (3 h): 118.6 x10_4/uL | RBC (3 h): 588.6 x10_4/ul | Ret (3 h): 11% | WBC (3 h): 80.9 x10_2/uL | KIDNEY_L (3 h): 0.8 g | KIDNEY_R (3 h): 0.8 g | KIDNEY_TOTAL (3 h): 1.6 g | LIVER (3 h): 8 g | A/G (3 h): 0.9 | ALP (3 h): 1671.4 IU/L | ALT (3 h): 54.6 IU/L | AST (3 h): 84.8 IU/L | BUN (3 h): 10 mg/dL | CRE (3 h): 0.2 mg/dL | Ca (3 h): 11.6 mg/dL | Cl (3 h): 106.8 meq/L | DBIL (3 h): 0.022 mg/dL | GLC (3 h): 164.4 mg/dL | IP (3 h): 9.4 mg/dL | K (3 h): 4.6 meq/L | LDH (3 h): 61.2 IU/L | Na (3 h): 141.8 meq/L | PL (3 h): 147.2 mg/dL | RALB (3 h): 2.6 g/dL | TBIL (3 h): 0.08 mg/dL | TC (3 h): 88 mg/dL | TG (3 h): 68.4 mg/dL | TP (3 h): 5.6 g/dL | gamma-GTP (3 h): 1.2 IU/L | TERMINAL_BW (6 h): 187.9 g | APTT (6 h): 17 s | Bas (6 h): 0% | Eos (6 h): 1% | Fbg (6 h): 266.8 mg/dL | Hb (6 h): 13.4 g/dL | Ht (6 h): 40.1% | Lym (6 h): 70.4% | MCH (6 h): 21.6 pg | MCHC (6 h): 33.5% | MCV (6 h): 64.5 fL | Mono (6 h): 3.8% | Neu (6 h): 24.4% | PT (6 h): 12.4 s | Plat (6 h): 120.7 x10_4/uL | RBC (6 h): 622.2 x10_4/ul | Ret (6 h): 9.7% | WBC (6 h): 82.2 x10_2/uL | KIDNEY_L (6 h): 0.8 g | KIDNEY_R (6 h): 0.8 g | KIDNEY_TOTAL (6 h): 1.6 g | LIVER (6 h): 7.3 g | A/G (6 h): 0.9 | ALP (6 h): 1652.4 IU/L | ALT (6 h): 45.8 IU/L | AST (6 h): 74 IU/L | BUN (6 h): 8.4 mg/dL | CRE (6 h): 0.2 mg/dL | Ca (6 h): 11.2 mg/dL | Cl (6 h): 109 meq/L | DBIL (6 h): 0.014 mg/dL | GLC (6 h): 177.6 mg/dL | IP (6 h): 10.6 mg/dL | K (6 h): 4.6 meq/L | LDH (6 h): 54.2 IU/L | Na (6 h): 143.4 meq/L | PL (6 h): 128.4 mg/dL | RALB (6 h): 2.6 g/dL | TBIL (6 h): 0.076 mg/dL | TC (6 h): 81.2 mg/dL | TG (6 h): 43 mg/dL | TP (6 h): 5.6 g/dL | gamma-GTP (6 h): 1.2 IU/L | TERMINAL_BW (9 h): 189.5 g | APTT (9 h): 17.4 s | Bas (9 h): 0% | Eos (9 h): 1% | Fbg (9 h): 242 mg/dL | Hb (9 h): 12.7 g/dL | Ht (9 h): 37.7% | Lym (9 h): 75.4% | MCH (9 h): 21.7 pg | MCHC (9 h): 33.7% | MCV (9 h): 64.2 fL | Mono (9 h): 2.4% | Neu (9 h): 20.8% | PT (9 h): 13.6 s | Plat (9 h): 112.1 x10_4/uL | RBC (9 h): 588.8 x10_4/ul | Ret (9 h): 10.4% | WBC (9 h): 74.2 x10_2/uL | KIDNEY_L (9 h): 0.8 g | KIDNEY_R (9 h): 0.8 g | KIDNEY_TOTAL (9 h): 1.7 g | LIVER (9 h): 6.9 g | A/G (9 h): 0.9 | ALP (9 h): 1737.2 IU/L | ALT (9 h): 44.4 IU/L | AST (9 h): 77.2 IU/L | BUN (9 h): 10.2 mg/dL | CRE (9 h): 0.1 mg/dL | Ca (9 h): 10.9 mg/dL | Cl (9 h): 108.2 meq/L | DBIL (9 h): 0.014 mg/dL | GLC (9 h): 182.6 mg/dL | IP (9 h): 11 mg/dL | K (9 h): 4.4 meq/L | LDH (9 h): 88 IU/L | Na (9 h): 143.2 meq/L | PL (9 h): 114.8 mg/dL | RALB (9 h): 2.4 g/dL | TBIL (9 h): 0.076 mg/dL | TC (9 h): 74.4 mg/dL | TG (9 h): 30.6 mg/dL | TP (9 h): 5.1 g/dL | gamma-GTP (9 h): 1.2 IU/L | TERMINAL_BW (24 h): 194.8 g | APTT (24 h): 17 s | Bas (24 h): 0% | Eos (24 h): 1% | Fbg (24 h): 237.6 mg/dL | Hb (24 h): 13 g/dL | Ht (24 h): 38.2% | Lym (24 h): 75.8% | MCH (24 h): 22 pg | MCHC (24 h): 34.1% | MCV (24 h): 64.4 fL | Mono (24 h): 3.4% | Neu (24 h): 19.4% | PT (24 h): 12.8 s | Plat (24 h): 113.1 x10_4/uL | RBC (24 h): 594.4 x10_4/ul | Ret (24 h): 9.5% | WBC (24 h): 77.2 x10_2/uL | KIDNEY_L (24 h): 0.9 g | KIDNEY_R (24 h): 0.9 g | KIDNEY_TOTAL (24 h): 1.8 g | LIVER (24 h): 8.8 g | A/G (24 h): 0.9 | ALP (24 h): 1858.4 IU/L | ALT (24 h): 55.2 IU/L | AST (24 h): 83 IU/L | BUN (24 h): 13 mg/dL | CRE (24 h): 0.2 mg/dL | Ca (24 h): 11 mg/dL | Cl (24 h): 107.2 meq/L | DBIL (24 h): 0.008 mg/dL | GLC (24 h): 183.6 mg/dL | IP (24 h): 7.8 mg/dL | K (24 h): 4.3 meq/L | LDH (24 h): 69.8 IU/L | Na (24 h): 142 meq/L | PL (24 h): 128.6 mg/dL | RALB (24 h): 2.5 g/dL | TBIL (24 h): 0.062 mg/dL | TC (24 h): 72.6 mg/dL | TG (24 h): 58.2 mg/dL | TP (24 h): 5.3 g/dL | gamma-GTP (24 h): 1 IU/L
